Patent US20240327397A1, “Pesticidally Active Fused Bicyclic Heteroaromatic Compounds” (SYNGENTA CROP PROTECTION AG, priority 2021, published 2024)

Columns and labels:
Format in all cases: in vivo
[1] = test system: Chilo suppressalis (Striped Rice Stemborer); assay: Example B1: Chilo suppressalis, artificial diet in 24-well plates, L2 larvae; conditions: 144 h, application rate 200 ppm, 6 days after infestation, versus untreated, read-out: control (at least one of mortality, anti-feedant effect, growth inhibition)
Method: Example B1: Chilo suppressalis (Striped Rice Stemborer)
24-well microtiter plates with artificial diet were treated with aqueous test solutions prepared from 10'000 ppm DMSO stock solutions by pipetting. After drying, the plates were infested with L2 larvae (6-8 per well). The samples were assessed for mortality, anti-feeding effect, and growth inhibition in comparison to untreated samples 6 days after infestation. Control of Chilo suppressalis by a test sample is given when at least one of the categories mortality, anti-feedant effect, and growth inhibition is higher than the untreated sample.

[2] = test system: Spodoptera littoralis (Eqyptian Cotton Leaf Worm); assay: Example B4: Spodoptera littoralis, sprayed cotton leaf discs, L1 larvae; conditions: foliar, 72 h, application rate 200 ppm, 3 days after infestation, versus untreated, read-out: control (at least one of mortality, anti-feedant effect, growth inhibition)
Method: Example B4: Spodoptera littoralis (Eqyptian Cotton Leaf Worm)
Cotton leaf discs were placed onto agar in 24-well microtiter plates and sprayed with aqueous test solutions prepared from 10'000 ppm DMSO stock solutions. After drying the leaf discs were infested with five L1 larvae. The samples were assessed for mortality, anti-feeding effect, and growth inhibition in comparison to untreated samples 3 days after infestation. Control of Spodoptera littoralis by a test sample is given when at least one of the categories mortality, anti-feedant effect, and growth inhibition is higher than the untreated sample.

[3] = test system: Plutella xylostella (Diamond Back Moth); assay: Example B3: Plutella xylostella, artificial diet in 24-well plates, eggs; conditions: 192 h, application rate 200 ppm, 8 days after infestation, versus untreated, read-out: effect in at least one of the two categories (mortality or growth inhibition)
Method: Example B3: Plutella xylostella (Diamond Back Moth)
24-well microtiter plates with artificial diet were treated with aqueous test solutions prepared from 10'000 ppm DMSO stock solutions by pipetting. After drying, Plutella eggs were pipetted through a plastic stencil onto a gel blotting paper and the plate was closed with it. The samples were assessed for mortality and growth inhibition in comparison to untreated samples 8 days after infestation.

[4] = test system: Diabrotica Balteata (Corn Root Worm); assay: Example B2: Diabrotica balteata, sprayed maize sprouts on agar, L2 larvae; conditions: 96 h, application rate 200 ppm, 4 days after infestation, versus untreated, read-out: effect in at least one of the two categories (mortality or growth inhibition)
Method: Example B2: Diabrotica Balteata (Corn Root Worm)
Maize sprouts placed onto an agar layer in 24-well microtiter plates were treated with aqueous test solutions prepared from 10'000 ppm DMSO stock solutions by spraying. After drying, the plates were infested with L2 larvae (6 to 10 per well). The samples were assessed for mortality and growth inhibition in comparison to untreated samples 4 days after infestation.

[5] = test system: Frankliniella occidentalis (Western Flower Thrips); assay: Example B5: Frankliniella occidentalis, feeding/contact activity, sunflower leaf discs; conditions: foliar, 168 h, application rate 200 ppm, population of mixed ages, 7 days after infestation
Method: Example B5: Frankliniella occidentalis (Western Flower Thrips). Feedinq/Contact Activity
Sunflower leaf discs were placed on agar in 24-well microtiter plates and sprayed with aqueous test solutions prepared from 10'000 DMSO stock solutions. After drying the leaf discs were infested with a Frankliniella population of mixed ages. The samples were assessed for mortality 7 days after infestation.

[6] = test system: Myzus persicae (Green Peach Aphid); assay: Example B7: Myzus persicae, intrinsic activity, sucrose solution under Parafilm; conditions: 120 h, test rate 12 ppm, 5 days after infestation
From the text: Example B7: Myzus persicae (Green Peach Aphid). Intrinsic Activity
Test compounds prepared from 10'000 ppm DMSO stock solutions were applied by pipette into 24-well microtiter plates and mixed with sucrose solution. The plates were closed with a stretched Parafilm. A plastic stencil with 24 holes was placed onto the plate and infested pea seedlings were placed directly on the Parafilm. The infested plate was closed with a gel blotting paper and another plastic stencil and then turned upside down. The samples were assessed for mortality 5 days after infestation.

C[C@H](NC1=N[S@@](C)(=O)=Nc2c(Br)cc(Br)cc21)c1ncnn1-c1ccc(C#N)cn1 (single isomer, unassigned) [P6]
≥ 80%: percent control (mortality, anti-feedant effect or growth inhibition) at 200 ppm [1] | percent control (mortality, anti-feedant effect or growth inhibition) at 200 ppm [2] | percent effect (mortality or growth inhibition) at 200 ppm [3] | percent effect (mortality or growth inhibition) at 200 ppm [4]

C[C@H](NC1=N[S@](C)(=O)=Nc2c(Br)cc(Br)cc21)c1ncnn1-c1ccc(C#N)cn1 (single isomer, unassigned) [P7]
≥ 80%: percent control (mortality, anti-feedant effect or growth inhibition) at 200 ppm [1] | percent control (mortality, anti-feedant effect or growth inhibition) at 200 ppm [2] | percent effect (mortality or growth inhibition) at 200 ppm [3] | percent effect (mortality or growth inhibition) at 200 ppm [4]

C[C@H](NC1=N[S@](C)(=O)=Nc2ccc(Br)cc21)c1ncnn1-c1ccc(C#N)cn1 (single isomer, unassigned) [P8]
≥ 80%: percent control (mortality, anti-feedant effect or growth inhibition) at 200 ppm [1] | percent control (mortality, anti-feedant effect or growth inhibition) at 200 ppm [2] | percent effect (mortality or growth inhibition) at 200 ppm [3]

C[C@H](NC1=N[S@@](C)(=O)=Nc2ccc(Br)cc21)c1ncnn1-c1ccc(C#N)cn1 (single isomer, unassigned) [P9]
≥ 80%: percent control (mortality, anti-feedant effect or growth inhibition) at 200 ppm [1] | percent control (mortality, anti-feedant effect or growth inhibition) at 200 ppm [2] | percent effect (mortality or growth inhibition) at 200 ppm [3] | percent effect (mortality or growth inhibition) at 200 ppm [4]

CC(NC1=CS(C)(=O)=Nc2c1cc(C(F)(F)F)cc2C(F)(F)F)c1ncnn1-c1ncccn1 (stereo not shown) [P2, 3-methyl-3-oxo-N-[1-(2-pyrimidin-2-yl-1,2,4-triazol-3-yl)ethyl]-8,10-bis(trifluoromethyl)-3λ^6-thia-2-azabicyclo[4.4.0]deca-1(6),2,4,7,9-pentaen-5-amine]
≥ 80%: percent control (mortality, anti-feedant effect or growth inhibition) at 200 ppm [1] | percent control (mortality, anti-feedant effect or growth inhibition) at 200 ppm [2] | percent effect (mortality or growth inhibition) at 200 ppm [3] | percent effect (mortality or growth inhibition) at 200 ppm [4]

CC(NC1=CS(C)(=O)=Nc2c1cc(C(F)(F)F)cc2C(F)(F)F)c1ncnn1-c1ccc(C#N)cn1 (stereo not shown) [P3]
≥ 80%: percent control (mortality, anti-feedant effect or growth inhibition) at 200 ppm [1] | percent control (mortality, anti-feedant effect or growth inhibition) at 200 ppm [2]

CC(NC1=NS(C)(=O)=Nc2c(Br)cc(Br)cc21)c1ncnn1-c1ccc(C#N)cn1 (stereo not shown) [P4, 6-[5-[1-[(8,10-dibromo-3-methyl-3-oxo-3λ^6-thia-2,4-diazabicyclo[4.4.0]deca-1(10),2,4,6,8-pentaen-5-yl)amino]ethyl]-1,2,4-triazol-1-yl]pyridine-3-carbonitrile]
≥ 80%: percent control (mortality, anti-feedant effect or growth inhibition) at 200 ppm [1] | percent control (mortality, anti-feedant effect or growth inhibition) at 200 ppm [2] | percent effect (mortality or growth inhibition) at 200 ppm [3] | percent effect (mortality or growth inhibition) at 200 ppm [4]

C[C@H](NC1=NS(C)(=O)=Nc2c(Br)cc(Br)cc21)c1ncnn1-c1ccc(C#N)cn1 (stereo partly drawn) [P5, 6-[5-[(1S)-1-[(8,10-dibromo-3-methyl-3-oxo-3λ^6-thia-2,4-diazabicyclo[4.4.0]deca-1(10),2,4,6,8-pentaen-5-yl)amino]ethyl]-1,2,4-triazol-1-yl]pyridine-3-carbonitrile]
≥ 80%: percent control (mortality, anti-feedant effect or growth inhibition) at 200 ppm [1] | percent control (mortality, anti-feedant effect or growth inhibition) at 200 ppm [2] | percent effect (mortality or growth inhibition) at 200 ppm [3] | percent effect (mortality or growth inhibition) at 200 ppm [4]

C[C@H](NC1=NS(C)(=O)=Nc2c(Br)cc(Br)cc21)c1ncnn1-c1cnccn1 (stereo partly drawn) [P11, 8,10-dibromo-3-methyl-3-oxo-N-[(1S)-1-(2-pyrazin-2-yl-1,2,4-triazol-3-yl)ethyl]-3λ^6-thia-2,4-diazabicyclo[4.4.0]deca-1(6),2,4,7,9-pentaen-5-amine]
≥ 80%: percent control (mortality, anti-feedant effect or growth inhibition) at 200 ppm [1] | percent control (mortality, anti-feedant effect or growth inhibition) at 200 ppm [2] | percent effect (mortality or growth inhibition) at 200 ppm [3] | percent effect (mortality or growth inhibition) at 200 ppm [4]

C[C@H](NC1=NS(C)(=O)=Nc2c(Cl)cc(C(F)(F)F)cc21)c1nccnc1-c1cnccn1 (stereo partly drawn) [P12, 10-chloro-3-methyl-3-oxo-N-[(1S)-1-(3-pyrazin-2-ylpyrazin-2-yl)ethyl]-8-(trifluoromethyl)-3λ^6-thia-2,4-diazabicyclo[4.4.0]deca-1(6),2,4,7,9-pentaen-5-amine]
≥ 80%: percent control (mortality, anti-feedant effect or growth inhibition) at 200 ppm [2] | percent effect (mortality or growth inhibition) at 200 ppm [3] | percent effect (mortality or growth inhibition) at 200 ppm [4]

C[C@H](NC1=NS(C)(=O)=Nc2c(Cl)cc(C(F)(F)F)cc21)c1ncnn1-c1ncccn1 (stereo partly drawn) [P13, 10-chloro-3-methyl-3-oxo-N-[(1S)-1-(2-pyrimidin-2-yl-1,2,4-triazol-3-yl)ethyl]-8-(trifluoromethyl)-3λ^6-thia-2,4-diazabicyclo[4.4.0]deca-1(6),2,4,7,9-pentaen-5-amine]
≥ 80%: percent control (mortality, anti-feedant effect or growth inhibition) at 200 ppm [2] | percent effect (mortality or growth inhibition) at 200 ppm [3] | mortality at 200 ppm [5] | percent effect (mortality or growth inhibition) at 200 ppm [4] | mortality at 12 ppm [6]

C[C@H](NC1=NS(C)(=O)=Nc2c(Cl)cc(C(F)(F)F)cc21)c1ncnn1-c1ccc(C#N)cn1 (stereo partly shown) [P15]
≥ 80%: percent control (mortality, anti-feedant effect or growth inhibition) at 200 ppm [2] | percent effect (mortality or growth inhibition) at 200 ppm [3] | percent effect (mortality or growth inhibition) at 200 ppm [4]

C[C@H](NC1=NS(C)(=O)=Nc2c1cc(Cl)cc2C(F)(F)F)c1ncnn1-c1ccc(C#N)cn1 (stereo partly shown) [P16]
≥ 80%: percent control (mortality, anti-feedant effect or growth inhibition) at 200 ppm [1] | percent control (mortality, anti-feedant effect or growth inhibition) at 200 ppm [2] | percent effect (mortality or growth inhibition) at 200 ppm [3] | percent effect (mortality or growth inhibition) at 200 ppm [4] | mortality at 12 ppm [6]

C[C@H](NC1=NS(C)(=O)=Nc2c1cc(Cl)cc2C(F)(F)F)c1ncnn1-c1cnccn1 (stereo partly drawn) [P17, 8-chloro-3-methyl-3-oxo-N-[(1S)-1-(2-pyrazin-2-yl-1,2,4-triazol-3-yl)ethyl]-10-(trifluoromethyl)-3λ^6-thia-2,4-diazabicyclo[4.4.0]deca-1(6),2,4,7,9-pentaen-5-amine]
≥ 80%: percent control (mortality, anti-feedant effect or growth inhibition) at 200 ppm [2] | percent effect (mortality or growth inhibition) at 200 ppm [3] | percent effect (mortality or growth inhibition) at 200 ppm [4]

C[C@H](NC1=NS(C)(=O)=Nc2c1cc(Cl)cc2C(F)(F)F)c1ncnn1-c1ncccn1 (stereo partly drawn) [P18, 8-chloro-3-methyl-3-oxo-N-[(1S)-1-(2-pyrimidin-2-yl-1,2,4-triazol-3-yl)ethyl]-10-(trifluoromethyl)-3λ^6-thia-2,4-diazabicyclo[4.4.0]deca-1(6),2,4,7,9-pentaen-5-amine]
≥ 80%: percent control (mortality, anti-feedant effect or growth inhibition) at 200 ppm [1] | percent control (mortality, anti-feedant effect or growth inhibition) at 200 ppm [2] | percent effect (mortality or growth inhibition) at 200 ppm [3] | percent effect (mortality or growth inhibition) at 200 ppm [4] | mortality at 12 ppm [6]

C[C@H](NC1=NS(C)(=O)=Nc2c1cc(Cl)cc2C(F)(F)F)c1nccnc1-c1cnccn1 (stereo partly drawn) [P19, 8-chloro-3-methyl-3-oxo-N-[(1S)-1-(3-pyrazin-2-ylpyrazin-2-yl)ethyl]-10-(trifluoromethyl)-3λ^6-thia-2,4-diazabicyclo[4.4.0]deca-1(6),2,4,7,9-pentaen-5-amine]
≥ 80%: percent control (mortality, anti-feedant effect or growth inhibition) at 200 ppm [1] | percent control (mortality, anti-feedant effect or growth inhibition) at 200 ppm [2] | percent effect (mortality or growth inhibition) at 200 ppm [3] | percent effect (mortality or growth inhibition) at 200 ppm [4]

C[C@@H](c1ncnn1-c1cnccn1)N(C)C1=NS(C)(=O)=Nc2c1cc(Cl)cc2C(F)(F)F (stereo partly drawn) [P20, 8-chloro-N,3-dimethyl-3-oxo-N-[(1S)-1-(2-pyrazin-2-yl-1,2,4-triazol-3-yl)ethyl]-10-(trifluoromethyl)-3λ^6-thia-2,4-diazabicyclo[4.4.0]deca-1(6),2,4,7,9-pentaen-5-amine]
≥ 80%: percent control (mortality, anti-feedant effect or growth inhibition) at 200 ppm [2] | percent effect (mortality or growth inhibition) at 200 ppm [3] | percent effect (mortality or growth inhibition) at 200 ppm [4]
